Assay results reported in ChEMBL document CHEMBL4138076, “Methyllysine binding domains: Structural insight and small molecule probe development” (Eur J Med Chem, 2017).
Square brackets hold non-standard residues; d marks the D form. Peptide text beside a SMILES is read from it. * marks the point of attachment. Benzoyl(4-tBu) = CC(C)(C)c1ccc(C(=O)*)cc1; Lys(Me3) = C[N+](C)(C)CCCC[C@H](N)C(=O)O; Lys(Et2) = CCN(CC)CCCC[C@H](N)C(=O)O

How the values were obtained:
Polycomb protein EED [1] = target: T1, Polycomb protein EED (Homo sapiens, UniProt O75530); assay: Binding affinity to full length N-terminal His-tagged EED (unknown origin) expressed in Rosetta2 BL21(DE3)pLysS cells by ITC method
[2] = target: T2, Chromodomain Y-like protein (Homo sapiens, UniProt Q9Y232); assay: Binding affinity to N-terminal GST-tagged CDYL (1 to 78 residues) (unknown origin) expressed in Rosetta2 BL21(DE3)pLysS cells after 30 mins by fluorescence polarization assay
T2 sequence (Q9Y232 whole entry): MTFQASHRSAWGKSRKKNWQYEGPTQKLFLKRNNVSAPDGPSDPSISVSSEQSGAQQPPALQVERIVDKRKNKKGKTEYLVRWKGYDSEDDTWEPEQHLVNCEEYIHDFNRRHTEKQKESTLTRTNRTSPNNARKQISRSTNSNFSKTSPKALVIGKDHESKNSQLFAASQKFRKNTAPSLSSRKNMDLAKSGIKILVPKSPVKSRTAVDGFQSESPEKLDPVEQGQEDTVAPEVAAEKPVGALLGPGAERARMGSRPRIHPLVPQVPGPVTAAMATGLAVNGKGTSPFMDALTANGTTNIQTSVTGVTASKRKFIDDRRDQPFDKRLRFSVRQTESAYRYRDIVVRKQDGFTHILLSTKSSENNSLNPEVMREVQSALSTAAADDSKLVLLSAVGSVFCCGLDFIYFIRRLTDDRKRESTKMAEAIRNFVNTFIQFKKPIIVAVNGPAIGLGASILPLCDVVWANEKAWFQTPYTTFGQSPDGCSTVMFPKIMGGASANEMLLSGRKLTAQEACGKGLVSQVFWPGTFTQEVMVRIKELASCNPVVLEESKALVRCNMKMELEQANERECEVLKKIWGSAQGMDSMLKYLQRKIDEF

[3] = target: T3, Chromodomain Y-like protein 2 (Homo sapiens, UniProt Q8N8U2); assay: Binding affinity to C-terminal His-tagged CDYL2 (1 to 75 residues) (unknown origin) expressed in Rosetta2 BL21(DE3)pLysS cells by ITC method
T3 sequence (Q8N8U2 whole entry): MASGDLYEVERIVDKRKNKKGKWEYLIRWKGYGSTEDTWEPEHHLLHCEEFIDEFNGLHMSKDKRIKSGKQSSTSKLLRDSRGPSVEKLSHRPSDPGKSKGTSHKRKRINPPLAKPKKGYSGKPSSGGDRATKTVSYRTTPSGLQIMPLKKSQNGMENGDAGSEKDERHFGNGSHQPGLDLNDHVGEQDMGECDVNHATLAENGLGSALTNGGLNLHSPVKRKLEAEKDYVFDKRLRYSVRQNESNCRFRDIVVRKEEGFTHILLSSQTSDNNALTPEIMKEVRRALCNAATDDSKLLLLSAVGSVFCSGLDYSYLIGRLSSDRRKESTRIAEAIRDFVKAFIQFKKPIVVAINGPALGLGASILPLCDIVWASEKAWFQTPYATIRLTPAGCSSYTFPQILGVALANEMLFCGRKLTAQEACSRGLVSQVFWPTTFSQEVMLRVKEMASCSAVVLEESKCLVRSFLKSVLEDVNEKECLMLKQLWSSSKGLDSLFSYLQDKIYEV

[4] = target: T4, Chromobox protein homolog 7 (Homo sapiens, UniProt O95931); assay: Inhibition of Cbx7 (unknown origin) using FITC-labeled SETDB1-K1170me3 peptide as probe by fluorescence polarization assay
T4 sequence (O95931 whole entry): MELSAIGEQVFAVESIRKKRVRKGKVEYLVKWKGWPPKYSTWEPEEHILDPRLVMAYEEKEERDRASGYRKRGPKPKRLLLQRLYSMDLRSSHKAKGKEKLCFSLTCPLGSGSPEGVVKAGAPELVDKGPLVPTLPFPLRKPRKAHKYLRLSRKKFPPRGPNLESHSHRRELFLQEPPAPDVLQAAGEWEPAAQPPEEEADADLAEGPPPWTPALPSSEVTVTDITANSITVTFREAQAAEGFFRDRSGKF

[5] = target: T4, Chromobox protein homolog 7; assay: Binding affinity to Cbx7 (unknown origin)
PC-3 = assay: Antiproliferative activity against human PC3 cells after 3 days by DAPI staining-based microscopic analysis; type: functional; conditions: PC-3, 72 h
[6] = target: TP53-binding protein 1 (Mus musculus) (UniProt P70399); assay: Inhibition of 53BP1 in mouse naive IgM+ B cells assessed as suppression of LPS/IL4 stimulated B cell antibody class switch recombination by FACS analsysis; type: cell-based; conditions: concentration not given here
TP53-binding protein 1 = TP53-binding protein 1 (Homo sapiens, UniProt Q12888); assay: Competitive displacement of p53K382me2 from His-tagged 53BP1 tandem Tudor domain (unknown origin)
[7] = target: T5, Chromodomain Y-like protein (Homo sapiens) (UniProt Q9Y232); assay: Binding affinity to N-terminal GST-tagged CDYL (1 to 78 residues) (unknown origin) expressed in Rosetta2 BL21(DE3)pLysS cells after 30 mins by ITC method
T5 sequence (whole entry): T2 sequence (Q9Y232 whole entry)

Polycomb protein EED [8] = target: T1, Polycomb protein EED; assay: Inhibition of full length N-terminal His-tagged EED (unknown origin) expressed in Rosetta2 BL21(DE3)pLysS cells after 30 mins by 3-FAM labelled fluorescence polarization assay
[9] = target: T6, Lethal(3)malignant brain tumor-like protein 1 (Homo sapiens, UniProt Q9Y468); assay: Inhibition of L3MBTL1 (unknown origin) by AlphaScreen assay
T6 sequence (Q9Y468 whole entry): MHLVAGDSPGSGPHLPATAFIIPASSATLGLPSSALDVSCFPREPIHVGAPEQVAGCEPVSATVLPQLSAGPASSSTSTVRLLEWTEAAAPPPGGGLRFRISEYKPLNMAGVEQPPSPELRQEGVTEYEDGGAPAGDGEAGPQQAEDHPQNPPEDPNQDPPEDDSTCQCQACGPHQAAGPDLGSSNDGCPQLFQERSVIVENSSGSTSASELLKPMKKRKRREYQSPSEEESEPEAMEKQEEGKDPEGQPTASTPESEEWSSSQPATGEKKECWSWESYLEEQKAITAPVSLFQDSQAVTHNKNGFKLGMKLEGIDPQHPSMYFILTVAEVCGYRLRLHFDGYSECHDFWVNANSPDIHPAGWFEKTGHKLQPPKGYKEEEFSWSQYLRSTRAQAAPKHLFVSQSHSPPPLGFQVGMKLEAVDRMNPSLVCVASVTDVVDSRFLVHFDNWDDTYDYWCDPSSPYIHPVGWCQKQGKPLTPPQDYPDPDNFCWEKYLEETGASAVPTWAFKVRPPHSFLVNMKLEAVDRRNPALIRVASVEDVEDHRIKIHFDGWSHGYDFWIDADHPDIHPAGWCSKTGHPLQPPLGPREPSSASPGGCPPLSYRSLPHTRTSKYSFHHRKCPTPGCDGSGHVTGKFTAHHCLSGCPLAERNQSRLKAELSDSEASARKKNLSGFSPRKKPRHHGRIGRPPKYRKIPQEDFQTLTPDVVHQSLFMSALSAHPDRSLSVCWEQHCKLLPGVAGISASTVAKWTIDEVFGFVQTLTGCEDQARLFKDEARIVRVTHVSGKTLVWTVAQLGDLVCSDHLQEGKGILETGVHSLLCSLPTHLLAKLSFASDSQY

T1 sequence (O75530 whole entry, the tested form may be a part): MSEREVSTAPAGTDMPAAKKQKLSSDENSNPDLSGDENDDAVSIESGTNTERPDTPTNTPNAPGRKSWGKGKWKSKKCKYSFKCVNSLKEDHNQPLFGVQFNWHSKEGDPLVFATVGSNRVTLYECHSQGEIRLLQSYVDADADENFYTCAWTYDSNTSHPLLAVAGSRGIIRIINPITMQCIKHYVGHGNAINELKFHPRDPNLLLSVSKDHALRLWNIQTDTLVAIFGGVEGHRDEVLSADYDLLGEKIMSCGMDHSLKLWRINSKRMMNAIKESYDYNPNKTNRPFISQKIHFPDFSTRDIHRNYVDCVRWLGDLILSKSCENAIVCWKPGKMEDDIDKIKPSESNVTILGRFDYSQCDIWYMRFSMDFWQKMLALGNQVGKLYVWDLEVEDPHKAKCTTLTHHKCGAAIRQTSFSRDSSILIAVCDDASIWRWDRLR
Chain of TP53-binding protein 1 (Q12888 whole entry, the tested form may be a part): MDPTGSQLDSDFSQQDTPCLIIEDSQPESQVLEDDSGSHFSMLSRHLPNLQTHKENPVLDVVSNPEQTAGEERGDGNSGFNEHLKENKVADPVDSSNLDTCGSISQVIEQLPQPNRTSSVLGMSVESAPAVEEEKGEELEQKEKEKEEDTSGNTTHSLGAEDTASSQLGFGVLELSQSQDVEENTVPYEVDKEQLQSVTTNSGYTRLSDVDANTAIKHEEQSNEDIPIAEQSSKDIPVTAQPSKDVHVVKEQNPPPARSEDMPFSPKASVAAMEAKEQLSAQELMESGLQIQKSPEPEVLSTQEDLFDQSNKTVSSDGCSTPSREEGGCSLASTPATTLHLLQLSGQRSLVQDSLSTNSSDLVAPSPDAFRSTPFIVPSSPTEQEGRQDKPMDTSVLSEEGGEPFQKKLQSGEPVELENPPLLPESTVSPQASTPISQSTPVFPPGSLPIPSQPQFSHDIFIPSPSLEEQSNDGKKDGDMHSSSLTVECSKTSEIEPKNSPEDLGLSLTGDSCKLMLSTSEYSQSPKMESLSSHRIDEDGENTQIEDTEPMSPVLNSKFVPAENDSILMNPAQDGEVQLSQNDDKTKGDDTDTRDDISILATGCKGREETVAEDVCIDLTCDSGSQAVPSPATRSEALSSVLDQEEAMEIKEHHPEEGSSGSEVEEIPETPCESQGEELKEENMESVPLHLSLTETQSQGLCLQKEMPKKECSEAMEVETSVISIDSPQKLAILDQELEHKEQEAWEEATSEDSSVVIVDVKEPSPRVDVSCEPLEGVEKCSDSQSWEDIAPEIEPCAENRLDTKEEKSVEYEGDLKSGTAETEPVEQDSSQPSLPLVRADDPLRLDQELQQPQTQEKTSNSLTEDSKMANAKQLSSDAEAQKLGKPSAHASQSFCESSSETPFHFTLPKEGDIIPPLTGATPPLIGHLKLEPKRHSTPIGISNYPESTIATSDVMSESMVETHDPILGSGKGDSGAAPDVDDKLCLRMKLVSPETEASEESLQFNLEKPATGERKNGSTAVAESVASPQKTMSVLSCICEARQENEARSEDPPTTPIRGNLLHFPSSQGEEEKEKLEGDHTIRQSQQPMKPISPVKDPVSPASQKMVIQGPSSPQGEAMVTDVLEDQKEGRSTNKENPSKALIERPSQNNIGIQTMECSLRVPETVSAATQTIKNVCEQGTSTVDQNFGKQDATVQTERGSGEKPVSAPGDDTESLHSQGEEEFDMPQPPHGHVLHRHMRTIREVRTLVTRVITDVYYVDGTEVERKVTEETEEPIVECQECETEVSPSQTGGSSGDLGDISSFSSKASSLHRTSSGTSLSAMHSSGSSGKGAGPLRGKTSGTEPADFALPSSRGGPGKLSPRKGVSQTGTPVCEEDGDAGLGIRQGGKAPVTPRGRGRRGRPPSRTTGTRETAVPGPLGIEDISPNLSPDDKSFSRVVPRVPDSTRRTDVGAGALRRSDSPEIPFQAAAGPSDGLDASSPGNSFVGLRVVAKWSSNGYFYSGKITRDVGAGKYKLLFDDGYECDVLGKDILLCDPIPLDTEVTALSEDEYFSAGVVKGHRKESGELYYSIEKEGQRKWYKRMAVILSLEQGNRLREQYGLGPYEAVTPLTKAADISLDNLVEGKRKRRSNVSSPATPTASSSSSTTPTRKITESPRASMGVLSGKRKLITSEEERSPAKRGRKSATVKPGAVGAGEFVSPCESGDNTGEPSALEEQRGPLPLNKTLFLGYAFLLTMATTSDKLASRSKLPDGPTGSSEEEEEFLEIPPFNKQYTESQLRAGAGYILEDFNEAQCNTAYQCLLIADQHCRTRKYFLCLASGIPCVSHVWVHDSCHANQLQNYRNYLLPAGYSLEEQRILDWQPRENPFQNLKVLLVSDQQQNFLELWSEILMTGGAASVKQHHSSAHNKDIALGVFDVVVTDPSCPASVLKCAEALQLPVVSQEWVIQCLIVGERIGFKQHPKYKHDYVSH
Chain of TP53-binding protein 1 (Mus musculus) (P70399 whole entry, the tested form may be a part): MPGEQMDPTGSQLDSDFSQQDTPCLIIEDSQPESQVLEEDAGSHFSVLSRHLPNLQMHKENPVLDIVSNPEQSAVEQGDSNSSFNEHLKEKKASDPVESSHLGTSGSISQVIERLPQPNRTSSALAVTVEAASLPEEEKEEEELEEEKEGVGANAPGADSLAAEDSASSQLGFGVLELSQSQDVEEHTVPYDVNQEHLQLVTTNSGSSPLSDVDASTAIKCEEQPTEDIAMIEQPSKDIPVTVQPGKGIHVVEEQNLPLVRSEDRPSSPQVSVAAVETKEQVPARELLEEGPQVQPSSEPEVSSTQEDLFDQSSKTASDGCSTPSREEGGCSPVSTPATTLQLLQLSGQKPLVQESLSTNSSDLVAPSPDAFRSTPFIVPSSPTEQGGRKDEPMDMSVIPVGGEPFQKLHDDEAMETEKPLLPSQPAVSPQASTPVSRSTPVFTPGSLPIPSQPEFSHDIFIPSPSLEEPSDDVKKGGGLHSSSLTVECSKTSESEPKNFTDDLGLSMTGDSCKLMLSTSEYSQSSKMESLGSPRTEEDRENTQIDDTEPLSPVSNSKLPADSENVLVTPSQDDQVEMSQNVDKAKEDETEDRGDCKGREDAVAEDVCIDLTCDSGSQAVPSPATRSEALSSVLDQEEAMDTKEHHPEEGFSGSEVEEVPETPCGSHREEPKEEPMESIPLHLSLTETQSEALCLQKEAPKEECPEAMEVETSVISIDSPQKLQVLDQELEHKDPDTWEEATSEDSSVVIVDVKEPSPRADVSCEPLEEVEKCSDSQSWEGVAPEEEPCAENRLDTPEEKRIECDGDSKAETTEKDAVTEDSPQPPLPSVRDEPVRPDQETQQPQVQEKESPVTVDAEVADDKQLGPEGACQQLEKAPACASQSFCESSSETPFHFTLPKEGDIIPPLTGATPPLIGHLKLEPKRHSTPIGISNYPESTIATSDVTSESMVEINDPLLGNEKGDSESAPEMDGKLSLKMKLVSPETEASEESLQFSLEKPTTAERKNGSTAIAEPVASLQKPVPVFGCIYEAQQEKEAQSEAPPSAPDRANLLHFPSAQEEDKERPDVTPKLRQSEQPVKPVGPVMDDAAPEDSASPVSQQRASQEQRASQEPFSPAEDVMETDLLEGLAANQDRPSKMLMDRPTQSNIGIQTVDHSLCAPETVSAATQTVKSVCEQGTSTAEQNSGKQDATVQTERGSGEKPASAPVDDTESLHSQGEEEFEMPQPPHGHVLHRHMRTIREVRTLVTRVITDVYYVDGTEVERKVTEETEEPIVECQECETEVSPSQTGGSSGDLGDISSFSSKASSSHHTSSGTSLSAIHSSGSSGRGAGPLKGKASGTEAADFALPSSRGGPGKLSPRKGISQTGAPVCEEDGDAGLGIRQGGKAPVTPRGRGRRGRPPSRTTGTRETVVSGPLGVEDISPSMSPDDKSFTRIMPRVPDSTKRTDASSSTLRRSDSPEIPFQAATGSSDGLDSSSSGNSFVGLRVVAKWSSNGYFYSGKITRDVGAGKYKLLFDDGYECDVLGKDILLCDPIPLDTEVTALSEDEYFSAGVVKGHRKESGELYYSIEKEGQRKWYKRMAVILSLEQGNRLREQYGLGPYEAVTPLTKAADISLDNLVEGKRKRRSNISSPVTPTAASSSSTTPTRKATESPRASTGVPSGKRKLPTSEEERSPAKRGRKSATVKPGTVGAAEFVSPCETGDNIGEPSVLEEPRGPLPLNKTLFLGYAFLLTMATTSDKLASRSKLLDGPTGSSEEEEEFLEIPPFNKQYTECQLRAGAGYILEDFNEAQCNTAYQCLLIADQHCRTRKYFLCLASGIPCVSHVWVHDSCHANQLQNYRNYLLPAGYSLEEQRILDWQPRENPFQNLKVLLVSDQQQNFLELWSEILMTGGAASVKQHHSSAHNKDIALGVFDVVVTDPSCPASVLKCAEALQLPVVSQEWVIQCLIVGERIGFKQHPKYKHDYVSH

CC(C)C[C@H](NC(=O)[C@@H](N)CCCNC(=N)N)C(=O)N[C@@H](CCC(N)=O)C(=O)N[C@@H](C)C(=O)N[C@@H](CCC(N)=O)C(=O)N[C@@H](CCCNC(=N)N)C(=O)N[C@@H](CCCC[N+](C)(C)C)C(=O)N[C@@H](Cc1ccccc1)C(=O)N[C@@H](C)C(=O)N[C@@H](CCC(N)=O)C(=O)N[C@@H](CO)C(=O)N[C@@H](CCC(N)=O)C(=O)N[C@@H](Cc1ccc(O)cc1)C(=O)O
Kd (Polycomb protein EED [1]): 3 µM

CCN(CCCC[C@H](NC(=O)[C@H](Cc1ccccc1)NC(=O)[C@H](C)NC(=O)[C@H](Cc1ccccc1)NC(=O)C1CCCCC1)C(=O)N[C@H](C(N)=O)[C@H](C)O)C(C)C
Kd [2]: 0.49 µM
Kd [3]: 0.64 µM

COc1cccc(C(=O)N2CCN(C(=O)COc3cccc(C)c3)CC2)c1OC
IC50 [4]: 67 µM
Kd [5]: 29 µM

CCN(CC)CCCC[C@H](NC(=O)[C@H](CC(C)C)NC(=O)[C@H](C)NC(=O)[C@H](Cc1ccccc1)NC(=O)c1ccc(C(C)(C)C)cc1)C(=O)N[C@@H](CO)C(=O)OC ({Benzoyl(4-tBu)}-FAL[Lys(Et2)]S-OMe)
GI50 (PC-3): 7.6 µM

CC(C)(C)NCCCNC(=O)c1cccc(Br)c1
inhibition [6]: 64%
IC50 (TP53-binding protein 1): 30 µM
Activity [7]: 64%

CC(C)C[C@H](NC(=O)[C@H](Cc1ccccc1)NC(=O)[C@H](CCCCN(C)C(C)C)NC(=O)[C@@H]1C[C@@H]2CCCC[C@@H]2N1)C(N)=O
Kd (Polycomb protein EED [1]): 0.68 µM
IC50 (Polycomb protein EED [8]): 1.74 µM

Cc1ccc(C(=O)Nc2ccc(S(=O)(=O)O)c3cc(S(=O)(=O)O)cc(S(=O)(=O)O)c23)cc1NC(=O)c1cccc(NC(=O)Nc2cccc(C(=O)Nc3cc(C(=O)Nc4ccc(S(=O)(=O)O)c5cc(S(=O)(=O)O)cc(S(=O)(=O)O)c45)ccc3C)c2)c1 [SURAMIN]
IC50 [4]: 8.1 µM

NC(=O)c1cc[n+](CC2=C(C(=O)O)N3C(=O)[C@@H](NC(=O)[C@@H](c4ccccc4)S(=O)(=O)[O-])[C@H]3SC2)cc1 [CEFSULODIN]
IC50 [9]: 0.098 µM

COc1cc(/C=C(\C#N)C(=O)c2ccc(O)c(O)c2)cc(I)c1O
IC50 [9]: 0.282 µM

COC(=O)[C@H](C)NC(=O)[C@H](Cc1ccccc1)NC(=O)[C@H](CCCC[N+](C)(C)C)NC(=O)[C@H](CCCNC(=N)N)NC(=O)[C@@H](N)CCC(N)=O (H-QR[Lys(Me3)]FA-OMe)
Kd (Polycomb protein EED [1]): 8.8 µM
